Blank lines part the entries; values can stand above or below the compound they belong to.
Tests used:
[1] = test system: conscious male chinchilla rabbits; assay: conscious rabbit ED model, low SNP dose (0.02 mg/kg i.v.), PDE5-resistant ED; type: in vivo
Experimental: (§1) The conscious rabbit ED model previously described (Bischoff and Schneider 2001) was used for the investigation of Erectile function. In brief: conscious male chinchilla rabbits (3-4 kg) were orally treated with the test compounds or with vehicle via gavage, followed by i.v. injection of the NO-donnor sodium nitro-prusside (SNP) in the ear vein, 90 minutes after oral applications. The SNP injections were done in a high dose setting (0.2 mg/kg SNP i.v) and a low dose setting (0.02 mg/kg SNP i.v.) corresponding to the general ED-population and the PDE5 non-responder ED-population, respectively. Penile length was quantified in 5 minutes intervals after injection of the SNP.

[2] = test system: conscious male chinchilla rabbits; assay: conscious rabbit ED model, high SNP dose (0.2 mg/kg i.v.), general ED population; type: in vivo; details: summary of Example 1; rabbits and rats; in the range of vardenafil
Experimental: as §1
The conscious rabbit ED model previously described (Bischoff and Schneider 2001) was used for the investigation of Erectile function as described in Example 1. The SNP injections were done in a high dose setting (0.2 mg/kg SNP i.v) corresponding to the general ED-population in which PDE5 inhibitors are fully active. Penile length was quantified in 5 minutes intervals after injection of the SNP.
The conscious rabbit ED model as described in Expample 1 and Example 6 was used for assessment of responderrates. […] Penile length was quantified in 5 minutes intervals after injection of the SNP. […]

[3] = test system: conscious male chinchilla rabbits; assay: haemodynamic effects by telemetry in conscious rabbits; type: in vivo, rabbit; details: stand alone
Text: In brief, telemetric implants (C50 PXT-DSI®) were used. Signals were received with RMC1-DSI® receiver plates, compiled and analyzied with PONEMAH® physiology platform software.

[4] = phase I study #14441, pharmacokinetics of co-administration; type: in vivo, human; details: for half-life / Tmax: male, human, plasma, po; for Tmax: read-out: median tmax
Text: The study was designed as a randomized, single-blind, placebo-controlled, group-comparison, dose-escalation study.

[5] = test system: involved metabolic enzymes; details: stated as fact; cited from earlier work
[6] = previous studies; single administration of 2.0 mg BAY 60-4552; cited from earlier work
[7] = test system: rabbits; details: intravenous and oral applications; cited from earlier work

- dose proportionality of exposure ([4]; BAY 60-4552 1 mg to 2 mg in combination with vardenafil 2.5 mg to 20 mg): increased in proportion to the dose
- exposure following concomitant administration versus each compound alone [4]: consistent with historical data
- time linearity of pharmacokinetics ([4]; in vivo): time linear
- half-life [4]: 13 to 14 h
- Tmax [4]: 0.5 to 1 h
Compound: COC(=O)Nc1c(N)nc(-c2nn(Cc3ccccc3F)c3ncccc23)nc1N [BAY 60-4552, methyl-4,6-diamino-2-[1-(2-fluorobenzyl)-1H-pyrazolo[3,4-b]pyridin-3-yl]-5-pyrimidinylcarbamate]
- penile erection (penile length) ([1]; low SNP 0.02 mg/kg i.v., 3 and 10 mg/kg p.o. stand alone): able to induce physiologically relevant erections
- erections, stand alone treatment [2]: significant erections
- decrease in mean arterial blood pressure ([3]; 1 mg/kg p.o.): −5 mmHg
- heart rate increase ([3]; 1 mg/kg p.o.): +24 bpm
- decrease in blood pressure ([3]; 3 mg/kg): −11 mmHg
- heart rate increase ([3]; 3 mg/kg): +51 bpm
- decrease in blood pressure ([3]; 10 mg/kg): −22 mmHg
- heart rate increase ([3]; 10 mg/kg): +103 bpm
- inhibitor or inducer of the involved metabolic enzymes [5]: neither vardenafil nor BAY 60-4552 is an inhibitor or inducer
- effect on heart rate and blood pressure [6]: no clinically relevant effect on heart rate and blood pressure

Compound: COC(=O)N(C)c1c(N)nc(-c2nn(Cc3ccccc3F)c3ncccc23)nc1N [BAY 63-2521, methyl-4,6-diamino-2-[1-(2-fluorobenzyl)-1H-pyrazolo[3,4-b]pyridin-3-yl]-5-pyrimidinyl-(methyl)carbamate]
- erections [7]: induced stable erections

Compound: CCCc1nn(C)c2c(=O)[nH]c(-c3cc(S(=O)(=O)N4CCN(C)CC4)ccc3OCC)nc12 [Sildenafil, 3-[2-ethoxy-5-(4-methylpiperazin-1-yl)sulfonyl-phenyl]-7-methyl-9-propy 1-2,4,7,8-tetrazabicyclo[4.3.0]nona-3,8,10-trien-5-one, reference compound]
- penile erection (penile length) ([1]; rabbit, in vivo): not able to produce any physiologically relevant erection

- exposure following concomitant administration versus each compound alone [4]: consistent with historical data
- half-life [4]: 3 to 5 h
- Tmax [4]: 0.75 to 1 h
- dose proportionality of AUC and Cmax ([4]; vardenafil 2.5 mg to 10 mg in combination with 1 mg or 2 mg BAY 60-4552): dose-proportional
Compound: CCCc1nc(C)c2c(=O)[nH]c(-c3cc(S(=O)(=O)N4CCN(CC)CC4)ccc3OCC)nn12 [Vardenafil, 2-(2-Ethoxy-5-(4-ethylpiperazin-1-yl-1-sulfonyl)phenyl)-5-methyl-7-propyl-3H-imidazo (5,1-f) (1,2,4)triazin-4-one, reference compound]
- decrease in mean arterial blood pressure ([3]; 1 mg/kg p.o.): −4 mmHg
- heart rate increase ([3]; 1 mg/kg p.o.): +14 bpm
- dose proportionality of exposure ([4]; 20 mg vardenafil level): slightly higher than proportional exposure

Reference: patent publication US20140288079A1, “SGC STIMULATORS OF SGC ACTIVATORS IN COMBINATION WITH PDE5 INHBITORS FOR THE TREATMENT OF ERECTILE DYSFUNCTION” (BAYER PHARMA AKTIENGESELLSCHAFT, priority 2009, published 2014)
